From publication PMC9305623, “Next generation GLP-1/GIP/glucagon triple agonists normalize body weight in obese mice” (Molecular Metabolism, 2022) come the findings set out here.

Structures are written as SMILES.

Data set [1] can be described thus: in vivo. On the set-up: species or system Göttingen minipigs. The conditions noted are these: female, Göttingen, minipig, iv, 2 nmol/kg. As for the experimental part:
Studies were conducted in accordance with the Protection of Animals Act, the Act on Experiments on Animals, and the Standard Operating Procedures for Experiments on Animals at Novo Nordisk A/S. The experiments were performed under the supervision and approval of the Danish Government Animal Experiments Inspectorate and the Novo Nordisk Ethical Review Counsel. Female Göttingen minipigs (Ellegaard Göttingen Minipigs A/S), 7–14 months old and weighing 16–35 kg, were housed individually and fed once daily with a restricted SDS minipig diet (Special Diets Services). At least one week before the study, two permanent central venous catheters were implanted in the caudal vena cava of each animal. The animals were fasted for approximately 18 h before dosing and 4 h after dosing but had ad libitum access to water during the whole period. Test compounds dissolved to a concentration of 20–40 nmol/mL in a vehicle (pH 7.4) containing 0.025% polysorbate-20, 10 mM sodium phosphate, and 250 mM glycerol were administered via an intravenous injection through one catheter at a dose of 2 nmol/kg. Blood samples were collected in 8 mM aqueous EDTA for up to 14 days post dosing, preferably through the other catheter, then centrifuged at 4 °C and ∼2000g for 10 min. Plasma was isolated and immediately frozen until RP-HPLC/MS analysis. Individual plasma concentration–time profiles were analysed by a non-compartmental model in Phoenix WinNonLin software (Pharsight Inc.), and the resulting terminal half-lives were determined at the harmonic mean.

Data set [2] concerns the target T1, hGLP-1 Receptor (Homo sapiens, UniProt P43220).
T1 construct: expressed in transfected cells; host or cells: baby hamster kidney (BHK) cells, stably transfected, with CRE-firefly luciferase reporter
The data set is described as follows: Receptor activation: cAMP production by CRE-luciferase reporter in stably transfected BHK cells. In kind it is cell-based. The conditions noted are these: compared to the native ligand for the receptor. As for the experimental part: (§1) Cyclic AMP (cAMP) production was assessed as a proxy for receptor activation using stably transfected baby hamster kidney (BHK) cell lines expressing the DNA for one individual receptor (GLP-1R, GIPR, GcgR; human- or mouse-specific sequence) and the DNA for the firefly luciferase reporter gene linked to the cAMP response element (CRE). The cells were kept in continuous culture at 37 °C and 5% CO2 in Dulbecco's Modified Eagle Medium (DMEM) supplemented with 10% heat-inactivated fetal bovine serum (HI-FBS), 300 μg/mL hygromycin, and 500 μg/mL G418; for cell lines expressing GIPR, the G418 concentration was lowered to 400 μg/mL. Cells were plated in a 96-well poly-D-lysine-coated plate at 5,000 cells per well in growth media and incubated overnight at 37 °C with 5% CO2. After the overnight incubation, the media was removed, the plate was washed once in Dulbecco's phosphase-buffered saline (DPBS), and 50 μL of assay buffer (DMEM without phenol red, 10 mM HEPES, 1x Glutamax, 1% ovalbumin, 0.1% Pluronic F-68) was added to each well. […] Aliquots of the dilution curves were added to the cell plate in a volume of 50 μL per well resulting in final assay concentrations ranging from 1 × 10^−14 to 1 × 10^−7 M. The assay plate was incubated for 3 h at 37 °C and 5% CO2. After the incubation, the assay plate was washed once with DPBS. A 100 μL aliquot of DPBS was added to each well followed by 100 μL of steadylite plus reagent (PerkinElmer). The assay plate was covered to protect reagent from light, shaken at 250 rpm at room temperature for 30 min, and read in a microtiter plate reader. EC50 values were calculated using Prism software (GraphPad) with the nonlinear regression log(agonist) vs. response. A minimum of two replicates were measured for each sample.
Background: Changes in cAMP serve as a functional read-out for many G protein-coupled receptors.

Data set [3] concerns the target T2, hGcg Receptor (Homo sapiens, UniProt P47871).
T2 construct: expressed in transfected cells; host or cells: baby hamster kidney (BHK) cells, stably transfected, with CRE-firefly luciferase reporter
Described as above. In kind it is cell-based. The conditions noted are these: compared to the native ligand for the receptor. As for the experimental part:
as §1

Data set [4] has as its target T3, hGIP Receptor (Homo sapiens, UniProt P48546).
T3 construct: expressed in transfected cells; host or cells: baby hamster kidney (BHK) cells, stably transfected, with CRE-firefly luciferase reporter
T3 sequence (P48546 22-466): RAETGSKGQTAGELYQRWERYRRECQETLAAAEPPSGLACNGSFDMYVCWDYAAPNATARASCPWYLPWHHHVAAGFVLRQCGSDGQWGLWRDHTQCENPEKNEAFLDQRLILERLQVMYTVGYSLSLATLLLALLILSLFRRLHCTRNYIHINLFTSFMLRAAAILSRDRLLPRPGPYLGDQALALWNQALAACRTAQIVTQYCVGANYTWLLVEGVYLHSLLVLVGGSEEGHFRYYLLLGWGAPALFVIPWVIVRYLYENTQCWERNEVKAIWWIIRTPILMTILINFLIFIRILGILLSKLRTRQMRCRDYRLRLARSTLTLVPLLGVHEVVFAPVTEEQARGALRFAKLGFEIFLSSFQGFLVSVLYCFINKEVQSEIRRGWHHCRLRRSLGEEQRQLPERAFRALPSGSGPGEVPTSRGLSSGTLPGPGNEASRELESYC
The data set is described as above. In kind it is cell-based. The conditions noted are these: compared to the native ligand for the receptor. As for the experimental part:
as §1

T1 sequence (P43220 24-463): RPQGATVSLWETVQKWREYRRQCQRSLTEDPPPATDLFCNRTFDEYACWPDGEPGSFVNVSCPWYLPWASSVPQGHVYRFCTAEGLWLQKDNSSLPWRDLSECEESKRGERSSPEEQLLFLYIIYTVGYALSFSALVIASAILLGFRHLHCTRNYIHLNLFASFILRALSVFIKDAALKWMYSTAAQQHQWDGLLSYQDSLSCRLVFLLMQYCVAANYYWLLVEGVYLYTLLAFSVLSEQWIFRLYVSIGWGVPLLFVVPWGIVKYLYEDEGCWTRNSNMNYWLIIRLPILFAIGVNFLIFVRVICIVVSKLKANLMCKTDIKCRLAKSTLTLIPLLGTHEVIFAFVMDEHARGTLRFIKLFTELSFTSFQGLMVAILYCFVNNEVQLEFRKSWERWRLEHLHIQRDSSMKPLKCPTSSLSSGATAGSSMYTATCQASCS
T2 sequence (P47871 26-477): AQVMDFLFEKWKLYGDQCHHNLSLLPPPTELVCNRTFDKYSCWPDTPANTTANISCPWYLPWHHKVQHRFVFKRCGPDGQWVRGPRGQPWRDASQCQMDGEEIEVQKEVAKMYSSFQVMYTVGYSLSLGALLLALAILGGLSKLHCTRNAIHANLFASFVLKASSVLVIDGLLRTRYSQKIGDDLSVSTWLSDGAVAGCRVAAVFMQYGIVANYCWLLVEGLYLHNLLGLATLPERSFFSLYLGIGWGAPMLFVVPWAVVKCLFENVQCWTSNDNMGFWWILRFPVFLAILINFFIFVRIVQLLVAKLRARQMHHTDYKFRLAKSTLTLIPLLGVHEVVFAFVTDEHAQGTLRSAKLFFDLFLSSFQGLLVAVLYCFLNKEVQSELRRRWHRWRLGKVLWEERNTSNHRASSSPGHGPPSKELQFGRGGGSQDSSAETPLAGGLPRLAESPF

Broadly, the Vd is the apparent volume that relates the amount in the body to the concentration in plasma or blood. The term clearance denotes a measure of how efficiently the substance is removed, as volume per time. Lower therefore signals inefficient removal. In data set [1], `CC[C@H](C)[C@H](NC(=O)[C@H](CO)NC(=O)[C@H](Cc1ccc(O)cc1)NC(=O)[C@H](CC(=O)O)NC(=O)[C@H](CO)NC(=O)[C@@H](NC(=O)[C@H](Cc1ccccc1)NC(=O)[C@@H](NC(=O)CNC(=O)[C@H](CCC(N)=O)NC(=O)C(C)(C)NC(=O)[C@@H](N)Cc1ccc(O)cc1)[C@@H](C)O)[C@@H](C)O)C(=O)N[C@@H](Cc1ccc(O)cc1)C(=O)N[C@@H](CC(C)C)C(=O)N[C@@H](CC(=O)O)C(=O)N[C@@H](CCCCNC(=O)COCCOCCNC(=O)COCCOCCNC(=O)CC[C@H](NC(=O)CCCCCCCCCCCCCCCCC(=O)O)C(=O)O)C(=O)N[C@@H](CCC(N)=O)C(=O)N[C@@H](C)C(=O)N[C@@H](C)C(=O)NC(C)(C)C(=O)N[C@@H](CCC(=O)O)C(=O)N[C@@H](Cc1ccccc1)C(=O)N[C@H](C(=O)N[C@@H](CC(N)=O)C(=O)N[C@@H](Cc1c[nH]c2ccccc12)C(=O)N[C@@H](CC(C)C)C(=O)N[C@@H](CC(C)C)C(=O)N[C@@H](C)C(=O)NCC(=O)NCC(=O)N1CCC[C@H]1C(=O)N[C@@H](CO)C(=O)N[C@@H](CO)C(=O)NCC(=O)N[C@@H](C)C(=O)N1CCC[C@H]1C(=O)N1CCC[C@H]1C(=O)N1CCC[C@H]1C(=O)N[C@@H](CO)C(N)=O)C(C)C` [Compound 7] showed a Vd of 0.121 L/kg and a clearance of 1.4 mL/h/kg. The “hGLP-1 Receptor Relative Potency %” value in data set [2] was determined as 93%. Also, the “hGcg Receptor Relative Potency %” value in data set [3] is recorded as 12%. Also, the “hGIP Receptor Relative Potency %” value in data set [4] came to 38%.
Regarding `CC[C@H](C)[C@H](NC(=O)[C@H](CO)NC(=O)[C@H](Cc1ccc(O)cc1)NC(=O)[C@H](CC(=O)O)NC(=O)[C@H](CO)NC(=O)[C@@H](NC(=O)[C@H](Cc1ccccc1)NC(=O)[C@@H](NC(=O)CNC(=O)[C@H](CCC(N)=O)NC(=O)C(C)(C)NC(=O)[C@@H](N)Cc1ccc(O)cc1)[C@@H](C)O)[C@@H](C)O)C(=O)N[C@@H](Cc1ccc(O)cc1)C(=O)N[C@@H](CC(C)C)C(=O)N[C@@H](CC(=O)O)C(=O)N[C@@H](CCCCNC(=O)COCCOCCNC(=O)COCCOCCNC(=O)CC[C@H](NC(=O)CCCCCCCCCCCCCCCCCCC(=O)O)C(=O)O)C(=O)N[C@@H](CCC(N)=O)C(=O)N[C@@H](C)C(=O)N[C@@H](C)C(=O)NC(C)(C)C(=O)N[C@@H](CCC(=O)O)C(=O)N[C@@H](Cc1ccccc1)C(=O)N[C@H](C(=O)N[C@@H](CC(N)=O)C(=O)N[C@@H](Cc1c[nH]c2ccccc12)C(=O)N[C@@H](CC(C)C)C(=O)N[C@@H](CC(C)C)C(=O)N[C@@H](C)C(=O)NCC(=O)NCC(=O)N1CCC[C@H]1C(=O)N[C@@H](CO)C(=O)N[C@@H](CO)C(=O)NCC(=O)N[C@@H](C)C(=O)N1CCC[C@H]1C(=O)N1CCC[C@H]1C(=O)N1CCC[C@H]1C(=O)N[C@@H](CO)C(N)=O)C(C)C` [Compound 8], in data set [1], the Vd was determined as 0.154 L/kg and the clearance was 1.2 mL/h/kg. Besides, in data set [2], the “hGLP-1 Receptor Relative Potency %” value is listed as 101%. In addition, in data set [3], the “hGcg Receptor Relative Potency %” value turned out to be 6%. Moreover, the “hGIP Receptor Relative Potency %” value in data set [4] stood at 39%.
